Measurements: ChEMBL document CHEMBL4303773 (Nature, 2020)
The source made the active and inactive calls. The calls are words filed in the database; no cut-off is given here.

What was measured:
Vero C1008 [1] = assay: AUC (cytotoxicity %) of compound against Vero E6 cells by MTT assay.; format: toxicity, cell-based; conditions: chlorocebus sabaeus
[2] = target: Sigma intracellular receptor 2 (Homo sapiens, UniProt Q5BJF2); assay: Displacement of [3H]-DTG from the Sigma2 receptor
[3] = target: Sigma non-opioid intracellular receptor 1 (Homo sapiens, UniProt Q99720)
Chain of Sigma non-opioid intracellular receptor 1 (Q99720 whole entry): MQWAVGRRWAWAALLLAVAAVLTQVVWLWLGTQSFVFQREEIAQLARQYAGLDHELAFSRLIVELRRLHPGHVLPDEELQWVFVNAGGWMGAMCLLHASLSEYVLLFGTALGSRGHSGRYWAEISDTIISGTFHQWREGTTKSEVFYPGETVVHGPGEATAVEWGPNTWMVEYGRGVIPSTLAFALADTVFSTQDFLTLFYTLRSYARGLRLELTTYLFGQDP
Description: Displacement of [3H]-pentazocin from the Sigma1 receptor

[4] = target: T1, Alpha-2A adrenergic receptor (Homo sapiens, UniProt P08913); assay: Activity of compound against Alpha-2A (ADRA2A) adrenergic receptor by displacement of [3H]-rauwolscine
T1 sequence (P08913 whole entry): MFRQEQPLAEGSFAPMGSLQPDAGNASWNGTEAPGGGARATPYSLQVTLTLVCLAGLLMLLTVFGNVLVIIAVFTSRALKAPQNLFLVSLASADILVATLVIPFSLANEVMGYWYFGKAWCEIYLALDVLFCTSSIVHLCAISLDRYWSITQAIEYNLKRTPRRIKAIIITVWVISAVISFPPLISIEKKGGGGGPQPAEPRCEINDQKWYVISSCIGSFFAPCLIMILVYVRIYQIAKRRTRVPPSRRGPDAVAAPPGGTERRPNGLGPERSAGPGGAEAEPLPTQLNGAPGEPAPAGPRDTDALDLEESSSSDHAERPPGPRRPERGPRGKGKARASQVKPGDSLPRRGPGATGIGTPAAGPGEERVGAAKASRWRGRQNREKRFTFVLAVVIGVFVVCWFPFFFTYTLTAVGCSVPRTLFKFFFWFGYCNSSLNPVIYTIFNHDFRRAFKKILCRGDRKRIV

[5] = target: T2, Muscarinic acetylcholine receptor M2 (Homo sapiens, UniProt P08172); assay: Activity of compound against Muscarinic acetylcholine receptor M2 (CHRM2) by displacement of 3H-QNB
T2 sequence (P08172 whole entry): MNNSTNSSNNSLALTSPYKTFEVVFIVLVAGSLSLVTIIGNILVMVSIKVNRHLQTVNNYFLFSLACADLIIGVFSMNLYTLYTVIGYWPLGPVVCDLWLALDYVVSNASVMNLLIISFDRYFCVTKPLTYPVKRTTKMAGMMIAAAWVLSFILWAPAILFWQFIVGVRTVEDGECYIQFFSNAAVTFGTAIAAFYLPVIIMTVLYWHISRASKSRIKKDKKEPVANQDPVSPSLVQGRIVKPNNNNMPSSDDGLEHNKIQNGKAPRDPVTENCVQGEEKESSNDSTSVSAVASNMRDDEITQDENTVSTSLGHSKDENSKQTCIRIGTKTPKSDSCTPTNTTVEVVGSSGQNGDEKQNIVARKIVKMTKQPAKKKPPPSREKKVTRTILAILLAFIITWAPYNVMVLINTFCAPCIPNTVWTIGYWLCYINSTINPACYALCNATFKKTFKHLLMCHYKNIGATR

[6] = target: T3, Muscarinic acetylcholine receptor M4 (Homo sapiens, UniProt P08173); assay: Activity of compound against Muscarinic acetylcholine receptor M4 (CHRM4) by displacement of 3H-QNB
T3 sequence (P08173 whole entry): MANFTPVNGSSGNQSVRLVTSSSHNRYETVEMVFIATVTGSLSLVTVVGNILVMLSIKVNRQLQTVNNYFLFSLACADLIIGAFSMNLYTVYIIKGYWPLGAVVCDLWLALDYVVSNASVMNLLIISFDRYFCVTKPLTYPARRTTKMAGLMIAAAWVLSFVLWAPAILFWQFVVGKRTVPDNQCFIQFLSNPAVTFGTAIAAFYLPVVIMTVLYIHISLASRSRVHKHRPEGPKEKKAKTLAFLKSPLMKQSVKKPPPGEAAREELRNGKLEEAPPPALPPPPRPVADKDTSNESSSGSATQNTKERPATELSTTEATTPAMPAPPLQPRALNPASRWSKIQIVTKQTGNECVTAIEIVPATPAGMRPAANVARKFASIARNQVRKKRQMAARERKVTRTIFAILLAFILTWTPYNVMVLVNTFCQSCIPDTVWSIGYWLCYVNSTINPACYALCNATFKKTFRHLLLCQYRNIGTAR

[7] = target: T4, Muscarinic acetylcholine receptor M5 (Homo sapiens, UniProt P08912); assay: Activity of compound against Muscarinic acetylcholine receptor M5 (CHRM5) by displacement of 3H-QNB
T4 sequence (P08912 whole entry): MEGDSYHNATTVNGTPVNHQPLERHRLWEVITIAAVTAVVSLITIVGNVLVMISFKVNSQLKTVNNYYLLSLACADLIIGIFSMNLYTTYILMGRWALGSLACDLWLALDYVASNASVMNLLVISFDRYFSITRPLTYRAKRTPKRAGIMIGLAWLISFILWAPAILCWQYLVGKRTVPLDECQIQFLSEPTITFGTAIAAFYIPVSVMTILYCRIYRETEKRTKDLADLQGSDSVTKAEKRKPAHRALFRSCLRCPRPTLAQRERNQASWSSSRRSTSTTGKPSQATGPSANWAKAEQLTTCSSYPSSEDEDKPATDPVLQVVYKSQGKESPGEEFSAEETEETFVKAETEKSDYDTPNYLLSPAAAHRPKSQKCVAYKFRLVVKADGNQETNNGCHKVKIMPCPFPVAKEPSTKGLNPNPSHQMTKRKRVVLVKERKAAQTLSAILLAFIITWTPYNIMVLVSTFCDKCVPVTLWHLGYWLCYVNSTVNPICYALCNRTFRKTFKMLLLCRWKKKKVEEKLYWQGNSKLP

SARS-CoV-2 [8] = assay: IC90 for antiviral activity against SARS-CoV-2 in the Vero E6 cell line by measuring infectious viral titer of supernatent from compound-treated Vero E6 cells by Median Tissue Culture Infectious Dose (TCID)50 by the method of Reed and Muench; format: functional, Chlorocebus sabaeus; conditions: Severe acute respiratory syndrome coronavirus 2, Vero C1008
[9] = target: Voltage-gated inwardly rectifying potassium channel KCNH2 (Homo sapiens, UniProt Q12809)
Chain of Voltage-gated inwardly rectifying potassium channel KCNH2 (Q12809 whole entry): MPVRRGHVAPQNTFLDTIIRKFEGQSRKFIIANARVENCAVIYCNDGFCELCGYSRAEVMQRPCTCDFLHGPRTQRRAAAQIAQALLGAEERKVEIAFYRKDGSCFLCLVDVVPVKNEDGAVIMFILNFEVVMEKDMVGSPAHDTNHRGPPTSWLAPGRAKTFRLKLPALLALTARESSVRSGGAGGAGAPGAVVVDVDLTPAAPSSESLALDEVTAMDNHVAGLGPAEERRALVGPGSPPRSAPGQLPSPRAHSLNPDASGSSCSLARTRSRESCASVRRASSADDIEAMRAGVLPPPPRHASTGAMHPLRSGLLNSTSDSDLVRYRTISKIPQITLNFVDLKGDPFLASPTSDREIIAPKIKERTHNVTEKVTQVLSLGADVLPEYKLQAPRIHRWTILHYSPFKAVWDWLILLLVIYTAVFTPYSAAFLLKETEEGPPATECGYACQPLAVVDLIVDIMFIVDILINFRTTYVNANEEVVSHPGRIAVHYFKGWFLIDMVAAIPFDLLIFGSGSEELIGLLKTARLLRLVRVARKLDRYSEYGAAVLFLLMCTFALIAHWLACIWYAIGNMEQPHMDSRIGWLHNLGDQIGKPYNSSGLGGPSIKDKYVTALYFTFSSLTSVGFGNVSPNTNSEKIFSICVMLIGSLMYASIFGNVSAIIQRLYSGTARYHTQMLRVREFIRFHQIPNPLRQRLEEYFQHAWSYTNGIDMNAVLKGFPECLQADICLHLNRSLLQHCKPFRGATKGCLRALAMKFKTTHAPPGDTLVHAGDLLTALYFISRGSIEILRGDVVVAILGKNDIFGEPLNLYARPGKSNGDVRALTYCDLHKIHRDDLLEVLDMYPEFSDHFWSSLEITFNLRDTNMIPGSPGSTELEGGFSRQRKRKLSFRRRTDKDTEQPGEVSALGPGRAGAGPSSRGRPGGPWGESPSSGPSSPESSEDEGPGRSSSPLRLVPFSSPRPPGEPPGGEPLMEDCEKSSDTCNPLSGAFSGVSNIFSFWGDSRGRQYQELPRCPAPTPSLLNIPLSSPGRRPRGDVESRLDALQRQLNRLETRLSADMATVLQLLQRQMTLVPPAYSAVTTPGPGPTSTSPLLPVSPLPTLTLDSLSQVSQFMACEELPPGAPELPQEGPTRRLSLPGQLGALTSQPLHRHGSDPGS
Description: hERG binding assays: Displacement of [3H]-Dofetilide (5 nM final) from hERG membranes obtained from HEK293 cells

SARS-CoV-2 [10] = conditions: Chlorocebus sabaeus; Vero C1008
[11] = (§1) Cytotoxicity of compound against Vero E6 cells by MTT assay.; conditions: chlorocebus sabaeus, Vero E6 cells
in vitro = conditions: monkey, Vero E6 cells
Vero C1008 [12] = assay: as §1; conditions: chlorocebus sabaeus, vero c1008
SARS-CoV-2 [13] = conditions: Chlorocebus sabaeus; Vero C1008; remark: listed apart in the source

Chain of Sigma intracellular receptor 2 (Q5BJF2 whole entry): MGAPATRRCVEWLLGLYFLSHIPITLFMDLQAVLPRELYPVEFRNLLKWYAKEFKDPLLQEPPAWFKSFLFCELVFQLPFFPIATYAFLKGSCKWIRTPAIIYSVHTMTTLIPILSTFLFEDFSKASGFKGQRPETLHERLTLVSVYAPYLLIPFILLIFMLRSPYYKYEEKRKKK

CCN(CCO)CCCC(C)Nc1ccnc2cc(Cl)ccc12 (stereo not drawn) [HYDROXYCHLOROQUINE]
AUC cytotoxicity (Vero C1008 [1]): 234.6 | Ki [2]: 1000 nM | Ki [3]: 126 nM | Ki [4]: 6.46 µM | Ki [5]: 5.13 µM | Ki [6]: 5.5 µM | Ki [7]: 20 µM | IC90 (SARS-CoV-2 [8]): 5.78 µM | Ki [9]: 2510 nM | AUC (SARS-CoV-2 [10]): 140

CN(C)C(=N)N=C(N)N [METFORMIN]
CC50 [11]: ~33.6 µM | AUC cytotoxicity (Vero C1008 [1]): 305.4 | selectivity ratio (in vitro): 1.04

CCOC(=O)N1CCC(=C2c3ccc(Cl)cc3CCc3cccnc32)CC1 [LORATADINE]
pCC50 (Vero C1008 [12]): Linear Fit | pIC50 (SARS-CoV-2 [13]): Linear Fit; INACTIVE

N=C(N)c1ccc2cc(OC(=O)c3ccc(N=C(N)N)cc3)ccc2c1 [NAFAMOSTAT]
pCC50 (Vero C1008 [12]): ~ 2.44 | AUC cytotoxicity (Vero C1008 [1]): 279.9 | selectivity ratio (in vitro): 0.926 (inactive)
